Values after ≈ are worked out from the molar mass of the structure shown. ± gives the standard deviation of the averaged measurements.
Tests used:
[1] = tested on: Pseudomonas aeruginosa PAO1-Xen41; assay: Emax, maximal drug effect on net growth rate (fitted lower asymptote) (per hour (slope of log luminescence)); higher = weaker maximal killing (less negative)
Protocol: (§1)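 Time-kill assays of bioluminescent P. aeruginosa PAO1-Xen41 (start ~5e6 CFU/mL) in 96-well plates at 37 °C, 150 rpm. Luminescence was read hourly for 20 h in cation-adjusted Mueller-Hinton broth, either non-conditioned (MH broth with or without supplements) or conditioned by one of 13 CF-associated species, then filter-sterilised and nutrient-replenished. Growth/kill rates came from log-linear regression of the exponential phase at 9-10 antibiotic concentrations, and Hill (Emax) models were fitted with drc for each replicate.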

[2] = tested on: Pseudomonas aeruginosa PAO1-Xen41; assay: Hill coefficient of concentration-effect curve (unitless); higher = steeper concentration-effect curve
Protocol: as §1

[3] = tested on: Pseudomonas aeruginosa PAO1-Xen41; assay: EC50 of growth/kill rate concentration-effect curve
Protocol: as §1

CN(C)c1ccc(O)c2c1C[C@H]1C[C@H]3[C@H](N(C)C)C(O)=C(C(N)=O)C(=O)[C@@]3(O)C(O)=C1C2=O [minocycline]
Details | EC50, [3] [µg/mL] | Emax, [1] | Hill coefficient, [2]
medium (conditioned by secondary species or non-conditioned control): A. baumannii | 41.5 ± 2.6 (≈ 90.7 µM) | -0.0946 ± 0.0024 | 3.37 ± 0.23
medium (conditioned by secondary species or non-conditioned control): A. fumigatus | 4.51 ± 1.3 (≈ 9.87 µM) | -0.12 ± 0.034 | 5.95 ± 4.4
medium (conditioned by secondary species or non-conditioned control): A. xylosoxidans | 29.9 ± 15 (≈ 65.4 µM) | -0.193 ± 0.029 | 6.19 ± 3.1
medium (conditioned by secondary species or non-conditioned control): B. cepacia | 65.8 ± 34 (≈ 144 µM) | -0.464 ± 0.13 | 1.13 ± 0.18
medium (conditioned by secondary species or non-conditioned control): C. albicans | 7.19 ± 3.2 (≈ 15.7 µM) | -0.223 ± 0.072 | 5.63 ± 7.1
medium (conditioned by secondary species or non-conditioned control): H. influenzae | 9.75 ± 0.44 (≈ 21.3 µM) | -0.198 ± 0.017 | 1.67 ± 0.093
medium (conditioned by secondary species or non-conditioned control): M. abcessus | 81 ± 10 (≈ 177 µM) | -0.72 ± 0.062 | 0.784 ± 0.0094
medium (conditioned by secondary species or non-conditioned control): M. avium | 6.33 ± 2.2 (≈ 13.8 µM) | -0.13 ± 0.057 | 5.77 ± 6.8
medium (conditioned by secondary species or non-conditioned control): M. catarrhalis | 21.1 ± 7.2 (≈ 46.2 µM) | -0.0725 ± 0.054 | 3.92 ± 3.6
medium (conditioned by secondary species or non-conditioned control): MH broth | 18.7 ± 5.8 (≈ 40.9 µM) | -0.41 ± 0.051 | 1.16 ± 0.093
medium (conditioned by secondary species or non-conditioned control): MH broth + ADC | 3.939 ± 0.011 | -0.071 ± 0.0075 | 15 ± 0.58
medium (conditioned by secondary species or non-conditioned control): MH broth + LHB + NAD | 8.7 ± 3 | -0.184 ± 0.081 | 1.74 ± 0.69
medium (conditioned by secondary species or non-conditioned control): MH broth + glucose | 19.7 ± 5.8 | -0.432 ± 0.079 | 1.2 ± 0.25
medium (conditioned by secondary species or non-conditioned control): R. mannitolilytica | 72.8 ± 23 (≈ 159 µM) | -0.649 ± 0.13 | 0.909 ± 0.074
medium (conditioned by secondary species or non-conditioned control): S. aureus | 87.8 ± 18 (≈ 192 µM) | -0.776 ± 0.079 | 0.785 ± 0.035
medium (conditioned by secondary species or non-conditioned control): S. maltophilia | 81 ± 24 (≈ 177 µM) | -0.713 ± 0.1 | 0.781 ± 0.041
medium (conditioned by secondary species or non-conditioned control): S. pneumoniae | 4.82 ± 0.48 (≈ 10.5 µM) | -0.0595 ± 0.019 | 2.06 ± 0.38

NC[C@H]1O[C@H](O[C@H]2[C@H](O)[C@@H](O[C@H]3O[C@H](CO)[C@@H](O)[C@H](N)[C@H]3O)[C@H](N)C[C@@H]2N)[C@H](N)C[C@@H]1O [tobramycin]
Details | EC50, [3] [µg/mL] | Emax, [1] | Hill coefficient, [2]
medium (conditioned by secondary species or non-conditioned control): A. baumannii | 0.257 ± 0.0043 (≈ 0.55 µM) | -0.121 ± 0.0078 | 16.7 ± 2.5
medium (conditioned by secondary species or non-conditioned control): A. fumigatus | 0.7033 ± 0.0034 (≈ 1.5 µM) | -0.188 ± 0.0083 | 4.28 ± 0.12
medium (conditioned by secondary species or non-conditioned control): A. xylosoxidans | 0.2759 ± 0.0025 (≈ 0.59 µM) | -0.157 ± 0.018 | 14.8 ± 1.3
medium (conditioned by secondary species or non-conditioned control): B. cepacia | 0.144 ± 0.0027 (≈ 0.308 µM) | -0.131 ± 0.015 | 10.6 ± 0.37
medium (conditioned by secondary species or non-conditioned control): C. albicans | 0.565 ± 0.011 (≈ 1.21 µM) | -0.214 ± 0.024 | 3.52 ± 0.41
medium (conditioned by secondary species or non-conditioned control): H. influenzae | 0.185 ± 0.033 (≈ 0.397 µM) | -0.126 ± 0.053 | 14.4 ± 6.6
medium (conditioned by secondary species or non-conditioned control): M. abcessus | 0.135 ± 0.02 (≈ 0.288 µM) | -0.095 ± 0.019 | 4.76 ± 2.6
medium (conditioned by secondary species or non-conditioned control): M. avium | 0.201 ± 0.0085 (≈ 0.429 µM) | -0.17 ± 0.019 | 9.2 ± 1.7
medium (conditioned by secondary species or non-conditioned control): M. catarrhalis | 0.145 ± 0.0072 (≈ 0.31 µM) | -0.134 ± 0.043 | 9.95 ± 1.6
medium (conditioned by secondary species or non-conditioned control): MH broth | 0.136 ± 0.024 (≈ 0.29 µM) | -0.122 ± 0.022 | 5.72 ± 2.2
medium (conditioned by secondary species or non-conditioned control): MH broth + ADC | 0.197 ± 0.0065 | -0.172 ± 0.018 | 11.3 ± 2.3
medium (conditioned by secondary species or non-conditioned control): MH broth + LHB + NAD | 0.138 ± 0.0033 | -0.116 ± 0.02 | 10.7 ± 1.3
medium (conditioned by secondary species or non-conditioned control): MH broth + glucose | 0.393 ± 0.0069 | -0.21 ± 0.017 | 3.39 ± 0.69
medium (conditioned by secondary species or non-conditioned control): R. mannitolilytica | 0.0784 ± 0.0077 (≈ 0.168 µM) | -0.107 ± 0.018 | 8.12 ± 2.7
medium (conditioned by secondary species or non-conditioned control): S. aureus | 0.0695 ± 0.0024 (≈ 0.149 µM) | -0.121 ± 0.018 | 10 ± 1.5
medium (conditioned by secondary species or non-conditioned control): S. maltophilia | 0.137 ± 0.0019 (≈ 0.293 µM) | -0.197 ± 0.021 | 6.76 ± 0.86
medium (conditioned by secondary species or non-conditioned control): S. pneumoniae | 0.471 ± 0.055 (≈ 1.01 µM) | -0.128 ± 0.032 | 12.4 ± 5.3

Reference: the supplement of paper PMC11619387
